Experimental findings from ChEMBL document CHEMBL5614408, “Indole-core inhibitors of influenza a neuraminidase: iterative medicinal chemistry and molecular modeling” (Eur J Med Chem, 2024) are described below.

pIC50: −log10 of the molar value. Activity calls are given as the source filed them. The calls are words filed in the database; no cut-off is given here.

Data set [1] has as its target Neuraminidase (Influenza A virus (A/Puerto Rico/8/1934(H1N1)), UniProt P03468). As to the kind of experiment: Inhibition of Influenza A virus A/Puerto Rico/8/34 (H1N1) neuraminidase assessed as reduction in neuraminidase activity by chemiluminescence based assay.
Data set [2] concerns MDCK. As to the kind of experiment: (§1) Cytotoxicity against MDCK cells assessed as inhibition of cell growth incubated for 48 hrs by MTS assay. In kind it is toxicity, cell-based, Canis lupus familiaris. The conditions noted are these: dog, mdck, 48 h. (Formazan colour is commonly taken as a measure of viable cells.)
Data set [3] has as its system Influenza A virus. Kind of data set: Antiviral activity against Influenza A virus A/Puerto Rico/8/34 (H1N1) infected in MDCK cells assessed as inhibition of viral infection preincubated with cells for 1 hrs followed by viral infection and measured after 48 hrs by hemagglutination assay. Format: functional, organism-based.
A short description of data set [4]: Selectivity index, ratio of CC50 for cytotoxicity against MDCK cells to IC50 for antiviral activity against Influenza A virus A/Puerto Rico/8/34 (H1N1) infected in MDCK cells. The conditions noted are these: dog, read-out: Ratio CC50/IC50. In kind it is toxicity, cell-based.
Data set [5] relates to Influenza A virus. As to the kind of experiment: Antiviral activity against influenza A virus A/California/04/2009 (H1N1) infected in female BALB/c mouse model assessed as inhibition of viral replication in lungs at 50 mg/kg, po pretreated for 4 hrs followed by twice daily compound administration 4 hrs post viral infection and measured on day 4 post infection. In kind it is functional, organism-based. The settings on record: time 4.0 day.

Data set [6] deals with Influenza A virus. As to the kind of experiment: Antiviral activity against influenza A virus A/California/04/2009 (H1N1) infected in female BALB/c mouse model assessed as survival rate at 50 mg/kg, po pretreated for 4 hrs followed by twice daily compound administration 4 hrs post viral infection and measured on day 11 post infection relative to control. The settings on record: 264 h, time 11 day. In kind it is functional.

For data set [7], the system named is Influenza A virus. As to the kind of experiment: Antiviral activity against influenza A virus A/California/04/2009 (H1N1) infected in female BALB/c mouse model assessed as reduction in body weight loss at 20 mg/kg, po pretreated for 4 hrs followed by twice daily compound administration 4 hrs post viral infection and measured on day 11 post infection. In kind it is functional, organism-based. The conditions noted are these: time 11.0 day.

The test system of data set [8] is Influenza A virus. Kind of data set: Antiviral activity against influenza A virus A/California/04/2009 (H1N1) infected in female BALB/c mouse model assessed as survival rate at 20 mg/kg, po pretreated for 4 hrs followed by twice daily compound administration 4 hrs post viral infection and measured on day 11 post infection relative to control. In kind it is functional. The conditions noted are these: 264 h, time 11 day.

Data set [9] is described as follows: as §1. The settings on record: dog, MDCK cells. In kind it is toxicity, cell-based, Canis lupus familiaris.

Sequence of Neuraminidase (Influenza A virus (A/Puerto Rico/8/1934(H1N1)), UniProt P03468) (P03468 whole entry): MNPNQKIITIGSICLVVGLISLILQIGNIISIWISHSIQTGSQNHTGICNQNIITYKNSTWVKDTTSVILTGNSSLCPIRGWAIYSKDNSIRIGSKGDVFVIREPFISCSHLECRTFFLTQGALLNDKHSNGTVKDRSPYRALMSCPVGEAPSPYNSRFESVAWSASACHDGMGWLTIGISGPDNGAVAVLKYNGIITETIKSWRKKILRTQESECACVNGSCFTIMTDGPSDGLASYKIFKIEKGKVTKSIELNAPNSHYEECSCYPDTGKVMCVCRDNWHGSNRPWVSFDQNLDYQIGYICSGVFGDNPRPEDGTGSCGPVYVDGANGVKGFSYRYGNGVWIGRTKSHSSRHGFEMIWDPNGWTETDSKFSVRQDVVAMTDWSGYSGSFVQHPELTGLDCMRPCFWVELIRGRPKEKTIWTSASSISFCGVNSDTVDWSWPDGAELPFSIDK

Regarding `CC(=O)N1/C(=C/NCc2ccc(F)c(F)c2)C(=O)c2ccccc21`, the pIC50 in [1] is 4.95. On the same count and under the same terms, with `COc1ccc(N/C=C2\C(=O)c3cc(OC)ccc3N2C(C)=O)cc1` the figure was 5.77.

For `COc1ccc(N/C=C2\C(=O)c3ccccc3N2C(C)=O)cc1`, the figures for the negative-log IC50 (pIC50) in [1] and in [3] were 7.00 and 4.92, respectively. Further, the half-maximal cytotoxic concentration (CC50) in data set [2] turned out to be 1810 µM. For the same molecule, the selectivity ratio in data set [4] stood at 151. For the molecule `CC(=O)N1/C(=C/Nc2cccc(Oc3ccccc3)c2)C(=O)c2ccccc21`, in data set [1], the negative-log IC50 (pIC50) was 6.30.

With `COc1ccc(OC)c(N/C=C2\C(=O)c3ccccc3N2C(C)=O)c1`, the negative-log IC50 (pIC50) in [1] is 6.00. Still for that read-out and setting: in the case of `CC(=O)N1/C(=C/Nc2cc(F)c(F)c(F)c2)C(=O)c2ccccc21` it was 6.00; in that of `COc1ccc(N/C=C2\C(=O)c3ccccc3N2C)cc1`, 6.00. Consider `CC(=O)N1/C(=C/Nc2ccc(Cc3ccccc3)cc2)C(=O)c2ccccc21`, for which the pIC50 in data set [1] was 7.00; in [3] it was 3.95. Besides, the CC50 in [2] worked out at 1740 µM. Further, the selectivity ratio in data set [4] is 16. In the case of `CC(=O)N1/C(=C/Nc2ccc(F)cc2)C(=O)c2ccccc21`, the negative logarithm of the IC50 (pIC50) in data set [1] was 6.47. Same read-out and setting: in the case of `CC(=O)N1/C(=C/Nc2cccc(Cc3ccccc3)c2)C(=O)c2ccccc21` it was 6.70. Still for that read-out and setting: with `COc1ccc(N/C=C2/Nc3ccccc3C2=O)cc1` the figure was 5.52; with `CCC(=O)N1/C(=C/Nc2ccc(F)c(F)c2)C(=O)c2ccccc21`, 6.52. In the case of `CC(=O)N1/C(=C/Nc2cccc(F)c2)C(=O)c2ccccc21`, the outcome in data set [5] and in data set [7] was Active. Further, the negative logarithm of the IC50 (pIC50) in data set [1] was 7.52; in data set [3], 4.47. Further, the half-maximal cytotoxic concentration (CC50) in data set [2] is 1480 µM. For the same molecule, the selectivity ratio in [4] is 44. The survival at 50 mg/kg in data set [6] turned out to be 30%. `CC(=O)N1/C(=C/Nc2ccc(C(F)(F)F)cc2)C(=O)c2ccccc21`: the pIC50 in data set [1] was 6.11. For the molecule `COc1ccc(N/C=C2\C(=O)c3ccccc3N2C(C)=O)cc1OC`, the pIC50 in data set [1] was 4.60.

`COc1ccc(N/C=C2\C(=O)c3cccnc3N2C(C)=O)cc1`: the negative-log IC50 (pIC50) in data set [1] is 5.70.

On to `CC(=O)N1/C(=C/Nc2cccc(C(F)(F)F)c2)C(=O)c2ccccc21`, for which, in data set [1], the negative logarithm of the IC50 (pIC50) was 6.02. Same read-out and setting: with `CCC(=O)N1/C(=C/Nc2ccc(F)cc2)C(=O)c2ccccc21` the figure was 6.37; with `CC(=O)N1/C(=C/Nc2cccc(F)c2)C(=O)c2cccnc21`, 5.85. The same measure, in the same setting: in the case of `CCOc1ccc(N/C=C2\C(=O)c3ccccc3N2C(C)=O)cc1` it was 6.21; in that of `CCOC(=O)c1cccc(N/C=C2\C(=O)c3ccccc3N2C(C)=O)c1`, 6.55.

As to `CCCCOc1ccc(N/C=C2\C(=O)c3ccccc3N2C(C)=O)cc1`, in [1], the pIC50 was 6.38.

Consider `COc1cc(N/C=C2\C(=O)c3ccccc3N2C(C)=O)cc(OC)c1OC`, for which the pIC50 in [1] is 5.57.

In the case of `CC(=O)N1/C(=C/Nc2ccccc2C(F)(F)F)C(=O)c2ccccc21`, the pIC50 in [1] was 6.24. Same read-out and setting: with `CC(=O)N1/C(=C/Nc2ccccc2)C(=O)c2ccccc21` the figure was 6.43; with `CCOC(=O)c1cccc(N/C=C2\C(=O)c3cc(Cl)ccc3N2C(C)=O)c1`, 5.69. Same read-out and setting: in the case of `CC(=O)N1/C(=C/Nc2ccc(OC(F)(F)F)cc2)C(=O)c2ccccc21` it was 5.29. Still for that read-out and setting: with `CC(=O)N1/C(=C/Nc2cccc(F)c2F)C(=O)c2ccccc21` the figure was 6.02. Turning to `CC(=O)N1/C(=C/Nc2ccccn2)C(=O)c2ccccc21`, the negative logarithm of the IC50 (pIC50) in [1] is 5.92. `COc1cccc(N/C=C2\C(=O)c3ccccc3N2C(C)=O)c1`: the pIC50 in data set [1] is 6.43.

For the molecule `COc1ccc(N/C=C2\C(=O)c3cc(Cl)ccc3N2C(C)=O)cc1`, the pIC50 in data set [1] is 5.27. Still for that read-out and setting: in the case of `COc1ccccc1N/C=C1\C(=O)c2ccccc2N1C(C)=O` it was 5.97. On the same count and under the same terms, in the case of `O=C1/C(=C\Nc2ccc(Cl)cc2)Nc2ccccc21` it was 5.73.

As to `CCOC(=O)C1=C[C@@H](OC(CC)CC)[C@H](NC(C)=O)[C@@H](N)C1` [OSELTAMIVIR], in data set [8], the survival at 20 mg/kg came out at 50%. With `CC(=O)N1/C(=C/Nc2ccc(Nc3ccccc3)cc2)C(=O)c2ccccc21`, in data set [1], the negative logarithm of the IC50 (pIC50) was 6.12.

As for `CCC(=O)N1/C(=C/Nc2ccc(OC)cc2)C(=O)c2ccccc21`, the negative logarithm of the IC50 (pIC50) in data set [1] is 6.14. Same read-out and setting: in the case of `CC(=O)N1/C(=C/Nc2ccc(F)c(F)c2)C(=O)c2ccccc21` it was 6.33; in that of `O=C1/C(=C\NCc2ccccc2)Nc2ccccc21`, 4.89. Same read-out and setting: with `O=C1/C(=C\Nc2ccccc2)Nc2ccccc21` the figure was 5.27. With `CC(=O)N1/C(=C/Nc2ccncc2)C(=O)c2ccccc21`, the pIC50 in data set [1] was 5.97.

For the molecule `CCC(=O)N1/C(=C/Nc2cccc(F)c2)C(=O)c2ccccc21`, the negative-log IC50 (pIC50) in data set [1] was 6.64; in data set [3] it was 4.95. Besides, the CC50 in [2] stood at 95 µM. For the same molecule, the selectivity ratio in [4] amounted to 8. In the case of `CCOC(=O)c1cccc(N/C=C2\C(=O)c3cccnc3N2C(C)=O)c1`, in [1], the pIC50 is 5.01. Same read-out and setting: with `CC(=O)N1/C(=C/Nc2cccc(S(N)(=O)=O)c2)C(=O)c2ccccc21` the figure was 6.19; with `CCOC(=O)c1cccc(N/C=C2\C(=O)c3cc(OC)ccc3N2C(C)=O)c1`, 5.88; with `CC(=O)N1/C(=C/Nc2ccc(Cl)cc2)C(=O)c2ccccc21`, 5.86.

`CC(=O)N1/C(=C/Nc2cc(F)cc(F)c2)C(=O)c2ccccc21`: the negative-log IC50 (pIC50) in [1] is 6.28. For `CC(=O)N1/C(=C/Nc2cccc(OC(F)(F)F)c2)C(=O)c2ccccc21`, the outcome in [5] and in [7] was Active. Moreover, the negative-log IC50 (pIC50) in data set [1] is 6.70; in data set [3] it was 5.52. The CC50 in data set [2] is 105 µM. The selectivity ratio in [4] is 35. In addition, the survival at 50 mg/kg in data set [6] turned out to be 30%. In the case of `CC(=O)N1/C(=C/Nc2cccc(Oc3ccccc3)c2)C(=O)c2cccnc21`, the CC50 at 48 h in data set [9] is 540 µM. Also, the negative logarithm of the IC50 (pIC50) in [3] is 3.92. The selectivity ratio in data set [4] was 5.

By pIC50 is commonly meant −log10 of the IC50, conventionally taken in molar units. In general, CC50 refers to the concentration at which the toxic effect on the cells reaches its halfway point.
